From ChEMBL document CHEMBL1743341, “Cytochrome p450 enzymes mechanism based inhibitors: common sub-structures and reactivity” (Curr Drug Metab, 2005)
“And” between values parts separate entries of the source, which are not always exact repeats. Identical values can stand only once. Blank lines part the entries; values can stand above or below the compound they belong to.

What was measured:
CYP2E1 = CYP2E1 (Homo sapiens, UniProt P05181); experiment: (§1) Mechanism based inhibition of human cytochrome P450 2E1 measured in vivo; type: ADME, organism-based; conditions: human, in vivo
Cytochrome P450 2E1 = Cytochrome P450 2E1 (Homo sapiens, UniProt P05181); experiment: as §1; type: ADME, organism-based
Cytochrome P450 3A5 [1] = target: T1, Cytochrome P450 3A5 (Homo sapiens, UniProt P20815); experiment: Mechanism based inhibition of human cytochrome P450 3A5, partition ratio; type: ADME
Cytochrome P450 3A4 [2] = target: T2, Cytochrome P450 3A4 (Homo sapiens, UniProt P08684); experiment: Mechanism based inhibition of human cytochrome P450 3A4 measured by testosterone 6-beta hydroxylation; type: ADME
Cytochrome P450 3A4 [3] = target: T2, Cytochrome P450 3A4; experiment: Mechanism based inhibition of human cytochrome P450 3A4 measured by testosterone 6-beta hydroxylation and erythromycin N-demethylation; type: ADME
CYP3A5 = CYP3A5 (Homo sapiens, UniProt P20815); experiment: (§2) Mechanism based inhibition of human cytochrome P450 3A5; type: ADME; conditions: human
Cytochrome P450 3A5 [4] = target: T1, Cytochrome P450 3A5; experiment: as §2; type: ADME
Cytochrome P450 2B1 [5] = target: T3, Cytochrome P450 2B1 (Rattus norvegicus, UniProt P00176); experiment: (§3) Mechanism based inhibition of rat cytochrome P450 2B1; type: ADME
T3 sequence (P00176 whole entry): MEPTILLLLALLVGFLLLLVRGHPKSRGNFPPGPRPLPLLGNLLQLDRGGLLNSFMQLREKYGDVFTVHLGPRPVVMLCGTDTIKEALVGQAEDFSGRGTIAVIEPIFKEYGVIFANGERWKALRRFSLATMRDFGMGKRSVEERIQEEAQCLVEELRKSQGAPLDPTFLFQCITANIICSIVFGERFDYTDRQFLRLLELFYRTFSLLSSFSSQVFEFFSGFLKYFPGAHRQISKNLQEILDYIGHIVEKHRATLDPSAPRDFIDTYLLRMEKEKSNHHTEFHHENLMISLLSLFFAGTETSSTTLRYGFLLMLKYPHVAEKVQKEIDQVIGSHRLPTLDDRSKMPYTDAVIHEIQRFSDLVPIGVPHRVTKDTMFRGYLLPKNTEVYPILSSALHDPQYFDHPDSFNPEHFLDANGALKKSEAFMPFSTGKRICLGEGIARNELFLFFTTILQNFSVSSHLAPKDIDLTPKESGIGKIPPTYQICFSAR

CYP2B1 = target: T4, CYP2B1 (Rattus norvegicus, UniProt P00176); experiment: as §3; type: ADME; conditions: rat
T4 sequence (P00176 whole entry): T3 sequence (P00176 whole entry)

Cytochrome P450 2B6 [6] = target: T5, Cytochrome P450 2B6 (Homo sapiens, UniProt P20813); experiment: (§4) Mechanism based inhibition of human cytochrome P450 2B6; type: ADME
T5 sequence (P20813 whole entry): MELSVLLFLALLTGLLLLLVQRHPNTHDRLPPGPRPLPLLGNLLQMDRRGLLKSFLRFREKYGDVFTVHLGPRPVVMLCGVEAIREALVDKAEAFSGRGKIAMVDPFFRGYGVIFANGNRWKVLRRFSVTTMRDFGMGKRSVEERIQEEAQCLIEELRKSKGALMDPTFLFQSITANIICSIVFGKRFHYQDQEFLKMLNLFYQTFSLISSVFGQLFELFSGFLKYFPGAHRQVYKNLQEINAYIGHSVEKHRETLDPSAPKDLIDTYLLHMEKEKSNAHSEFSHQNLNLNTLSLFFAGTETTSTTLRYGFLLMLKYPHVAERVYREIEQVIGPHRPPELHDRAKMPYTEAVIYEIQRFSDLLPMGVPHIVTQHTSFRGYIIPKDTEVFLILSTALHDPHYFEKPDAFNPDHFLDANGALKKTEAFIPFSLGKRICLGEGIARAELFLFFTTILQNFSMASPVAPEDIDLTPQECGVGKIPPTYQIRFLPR

CYP2B6 = target: T6, CYP2B6 (Homo sapiens, UniProt P20813); experiment: as §4; type: ADME; conditions: human
T6 sequence (P20813 whole entry): T5 sequence (P20813 whole entry)

Cytochrome P450 2B6 [7] = target: T5, Cytochrome P450 2B6; experiment: Mechanism based inhibition of human cytochrome P450 2B6, partition ratio; type: ADME
Cytochrome P450 2B4 = target: T7, Cytochrome P450 2B4 (Oryctolagus cuniculus, UniProt P00178); experiment: (§5) Mechanism based inhibition of rabbit cytochrome P450 2B4; type: ADME
T7 sequence (P00178 whole entry): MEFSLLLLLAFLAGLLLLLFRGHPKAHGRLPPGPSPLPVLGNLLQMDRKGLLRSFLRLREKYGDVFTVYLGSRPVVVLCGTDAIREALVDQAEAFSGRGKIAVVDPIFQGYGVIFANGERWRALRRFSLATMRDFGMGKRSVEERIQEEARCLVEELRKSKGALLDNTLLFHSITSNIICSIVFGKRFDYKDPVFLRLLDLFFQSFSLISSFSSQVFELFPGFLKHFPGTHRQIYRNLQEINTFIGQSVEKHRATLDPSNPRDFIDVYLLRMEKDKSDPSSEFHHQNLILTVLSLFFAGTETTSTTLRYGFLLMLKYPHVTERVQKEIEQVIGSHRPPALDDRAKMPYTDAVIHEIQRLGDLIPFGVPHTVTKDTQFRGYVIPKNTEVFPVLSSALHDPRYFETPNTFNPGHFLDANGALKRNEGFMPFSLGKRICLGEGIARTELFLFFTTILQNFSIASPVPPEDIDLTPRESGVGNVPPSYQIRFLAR

CYP2B4 = target: T8, CYP2B4 (Oryctolagus cuniculus, UniProt P00178); experiment: as §5; type: ADME; conditions: rabbit
T8 sequence (P00178 whole entry): T7 sequence (P00178 whole entry)

Cytochrome P450 2C9 [8] = target: T9, Cytochrome P450 2C9 (Homo sapiens, UniProt P11712); experiment: (§6) Mechanism based inhibition of human cytochrome P450 2C9; type: ADME
Cytochrome P450 2B1 [9] = target: T3, Cytochrome P450 2B1; experiment: Mechanism based inhibition of rat cytochrome P450 2B1, partition ratio; type: ADME
Cytochrome P450 2A6 [10] = target: T10, Cytochrome P450 2A6 (Homo sapiens, UniProt P11509); experiment: Mechanism based inhibition of human cytochrome P450 2A6, partition ratio; type: ADME
T10 sequence (P11509 whole entry): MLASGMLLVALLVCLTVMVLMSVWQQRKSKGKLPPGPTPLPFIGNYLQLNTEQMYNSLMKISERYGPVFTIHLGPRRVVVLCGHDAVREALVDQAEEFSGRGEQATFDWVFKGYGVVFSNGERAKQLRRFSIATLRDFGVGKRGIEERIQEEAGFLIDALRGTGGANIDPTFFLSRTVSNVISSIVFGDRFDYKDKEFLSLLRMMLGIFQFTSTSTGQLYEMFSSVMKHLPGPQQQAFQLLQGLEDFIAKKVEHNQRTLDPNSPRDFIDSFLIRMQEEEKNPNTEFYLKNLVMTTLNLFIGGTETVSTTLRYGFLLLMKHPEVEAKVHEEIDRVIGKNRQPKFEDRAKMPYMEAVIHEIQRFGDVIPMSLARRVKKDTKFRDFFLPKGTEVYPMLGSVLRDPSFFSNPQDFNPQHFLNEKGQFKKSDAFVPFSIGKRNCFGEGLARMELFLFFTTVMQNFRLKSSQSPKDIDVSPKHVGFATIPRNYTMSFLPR

Cytochrome P450 2A6 [11] = target: T10, Cytochrome P450 2A6; experiment: (§7) Mechanism based inhibition of human cytochrome P450 2A6 measured by coumarin 7-hxdroxylation using purified P450; type: ADME
CYP2A6 [12] = target: T11, CYP2A6 (Homo sapiens, UniProt P11509); experiment: as §7; type: ADME; conditions: human, purified CYP2A6, probe coumarin (7-hydroxylation)
T11 sequence (P11509 whole entry): T10 sequence (P11509 whole entry)

Cytochrome P450 2A6 [13] = target: T10, Cytochrome P450 2A6; experiment: (§8) Mechanism based inhibition of human cytochrome P450 2A6 measured by coumarin 7-hydroxylation using human liver microsomes; type: ADME, Microsome
CYP2A6 [14] = target: T11, CYP2A6; experiment: as §8; type: ADME, Microsome; conditions: human, human liver microsomes, probe coumarin
Cytochrome P450 3A6 [15] = target: T12, Cytochrome P450 3A6 (Oryctolagus cuniculus, UniProt P11707); experiment: Mechanism based inhibition of rabbit cytochrome P450 3A6, partition ratio; type: ADME
Cytochrome P450 3A6 [16] = target: T12, Cytochrome P450 3A6; experiment: Mechanism based inhibition of rabbit cytochrome P450 3A6 measured by testosterone and progesterone 6-beta hydroxylation; type: ADME
Cytochrome P450 2A6 [17] = target: T10, Cytochrome P450 2A6; experiment: (§9) Mechanism based inhibition of human cytochrome P450 2A6 measured by coumarin 7-hydroxylation; type: ADME
CYP2A6 [18] = target: T11, CYP2A6; experiment: as §9; type: ADME; conditions: human, probe coumarin (7-hydroxylation)
Cytochrome P450 2B6 [19] = target: T5, Cytochrome P450 2B6; experiment: Mechanism based inhibition of human cytochrome P450 2B6, partition ratio (value refers to P450 expressed in lymphoblastoid cells); type: ADME, cell-based
CYP2D6 = CYP2D6 (Homo sapiens, UniProt P10635); experiment: (§10) Mechanism based inhibition of human cytochrome P450 2D6 measured by dextromethorphan O-demethylation; type: ADME; conditions: human, probe dextromethorphan
Cytochrome P450 2D6 [20] = target: T13, Cytochrome P450 2D6 (Homo sapiens, UniProt P10635); experiment: as §10; type: ADME
Cytochrome P450 2D6 [21] = target: T13, Cytochrome P450 2D6; experiment: Mechanism based inhibition of human cytochrome P450 2D6, partition ratio; type: ADME
Cytochrome P450 2B6 [22] = target: T5, Cytochrome P450 2B6; experiment: Mechanism based inhibition of human cytochrome P450 2B6, partition ratio (value refers to P450 expressed in baculovirus infected insect cells); type: ADME
CYP2C9 = CYP2C9 (Homo sapiens, UniProt P11712); experiment: as §6; type: ADME; conditions: human
Cytochrome P450 2C9 [23] = target: T9, Cytochrome P450 2C9; experiment: Mechanism based inhibition of human cytochrome P450 2C9, partition ratio; type: ADME

T2 sequence (P08684 whole entry): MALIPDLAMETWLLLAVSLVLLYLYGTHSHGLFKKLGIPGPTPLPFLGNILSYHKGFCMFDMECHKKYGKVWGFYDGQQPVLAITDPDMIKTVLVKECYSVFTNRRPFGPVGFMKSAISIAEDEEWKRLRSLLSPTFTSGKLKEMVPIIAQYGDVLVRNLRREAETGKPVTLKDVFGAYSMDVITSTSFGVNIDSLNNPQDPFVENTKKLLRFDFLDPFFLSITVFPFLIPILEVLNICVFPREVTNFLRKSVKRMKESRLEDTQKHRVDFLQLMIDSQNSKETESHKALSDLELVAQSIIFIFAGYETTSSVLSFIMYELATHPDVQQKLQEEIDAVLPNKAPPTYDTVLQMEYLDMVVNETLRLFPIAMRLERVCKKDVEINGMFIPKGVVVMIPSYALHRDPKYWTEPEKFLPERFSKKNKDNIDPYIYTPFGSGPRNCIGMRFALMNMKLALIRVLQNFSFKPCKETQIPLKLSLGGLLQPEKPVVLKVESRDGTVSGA
T9 sequence (P11712 whole entry): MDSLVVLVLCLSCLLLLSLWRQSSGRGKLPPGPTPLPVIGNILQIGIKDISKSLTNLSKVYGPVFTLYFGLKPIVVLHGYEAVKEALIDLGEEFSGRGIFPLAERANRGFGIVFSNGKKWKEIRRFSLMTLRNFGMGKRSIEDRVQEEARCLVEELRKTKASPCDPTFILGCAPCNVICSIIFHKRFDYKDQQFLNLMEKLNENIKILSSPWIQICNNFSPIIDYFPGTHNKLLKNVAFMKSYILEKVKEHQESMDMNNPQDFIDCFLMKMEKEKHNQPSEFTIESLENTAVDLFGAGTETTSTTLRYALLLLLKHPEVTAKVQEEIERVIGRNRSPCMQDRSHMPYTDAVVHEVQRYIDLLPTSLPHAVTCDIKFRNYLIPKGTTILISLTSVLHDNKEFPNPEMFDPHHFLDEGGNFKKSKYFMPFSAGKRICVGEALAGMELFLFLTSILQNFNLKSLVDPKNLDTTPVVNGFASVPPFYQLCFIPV
T12 sequence (P11707 whole entry): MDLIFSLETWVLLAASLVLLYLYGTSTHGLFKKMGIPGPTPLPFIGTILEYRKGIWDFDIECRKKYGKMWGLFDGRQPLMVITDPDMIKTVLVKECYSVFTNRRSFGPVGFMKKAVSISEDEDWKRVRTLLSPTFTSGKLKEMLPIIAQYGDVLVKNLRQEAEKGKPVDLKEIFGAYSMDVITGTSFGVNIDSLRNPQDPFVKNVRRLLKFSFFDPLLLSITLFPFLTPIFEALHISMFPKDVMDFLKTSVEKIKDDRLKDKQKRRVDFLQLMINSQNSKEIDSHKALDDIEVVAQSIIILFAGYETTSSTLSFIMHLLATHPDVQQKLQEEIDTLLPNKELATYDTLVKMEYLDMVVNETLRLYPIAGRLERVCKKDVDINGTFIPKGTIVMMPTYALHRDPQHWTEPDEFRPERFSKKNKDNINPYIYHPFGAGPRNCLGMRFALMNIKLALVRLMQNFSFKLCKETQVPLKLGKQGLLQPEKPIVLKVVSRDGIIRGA
T1 sequence (P20815 whole entry): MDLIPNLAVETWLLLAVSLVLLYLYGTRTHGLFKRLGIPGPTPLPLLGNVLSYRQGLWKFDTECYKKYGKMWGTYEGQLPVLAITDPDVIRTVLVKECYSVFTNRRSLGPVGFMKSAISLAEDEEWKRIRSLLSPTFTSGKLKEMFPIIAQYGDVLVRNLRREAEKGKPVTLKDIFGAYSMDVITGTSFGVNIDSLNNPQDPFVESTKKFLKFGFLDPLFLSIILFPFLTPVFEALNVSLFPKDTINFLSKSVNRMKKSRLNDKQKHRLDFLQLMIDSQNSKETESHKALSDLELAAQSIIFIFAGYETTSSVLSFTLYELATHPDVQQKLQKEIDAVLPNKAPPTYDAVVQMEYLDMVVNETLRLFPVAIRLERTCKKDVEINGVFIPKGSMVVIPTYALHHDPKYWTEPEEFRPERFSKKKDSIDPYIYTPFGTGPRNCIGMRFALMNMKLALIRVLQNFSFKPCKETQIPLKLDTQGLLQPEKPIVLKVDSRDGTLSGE
T13 sequence (P10635 whole entry): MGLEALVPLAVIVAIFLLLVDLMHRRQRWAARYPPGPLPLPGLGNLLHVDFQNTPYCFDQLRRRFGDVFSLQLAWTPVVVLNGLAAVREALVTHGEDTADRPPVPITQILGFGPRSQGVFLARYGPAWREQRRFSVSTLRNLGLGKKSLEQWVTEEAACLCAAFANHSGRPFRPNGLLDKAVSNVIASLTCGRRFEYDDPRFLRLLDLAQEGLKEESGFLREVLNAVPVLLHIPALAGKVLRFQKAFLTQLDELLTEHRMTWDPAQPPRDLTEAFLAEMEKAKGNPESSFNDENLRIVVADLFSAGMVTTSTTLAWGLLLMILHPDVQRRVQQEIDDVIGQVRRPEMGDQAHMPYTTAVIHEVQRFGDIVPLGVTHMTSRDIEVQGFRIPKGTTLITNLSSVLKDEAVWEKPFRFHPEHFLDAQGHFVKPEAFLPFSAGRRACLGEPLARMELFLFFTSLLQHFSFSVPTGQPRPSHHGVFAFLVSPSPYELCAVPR
Cytochrome P450 2E1, sequence (P05181 whole entry): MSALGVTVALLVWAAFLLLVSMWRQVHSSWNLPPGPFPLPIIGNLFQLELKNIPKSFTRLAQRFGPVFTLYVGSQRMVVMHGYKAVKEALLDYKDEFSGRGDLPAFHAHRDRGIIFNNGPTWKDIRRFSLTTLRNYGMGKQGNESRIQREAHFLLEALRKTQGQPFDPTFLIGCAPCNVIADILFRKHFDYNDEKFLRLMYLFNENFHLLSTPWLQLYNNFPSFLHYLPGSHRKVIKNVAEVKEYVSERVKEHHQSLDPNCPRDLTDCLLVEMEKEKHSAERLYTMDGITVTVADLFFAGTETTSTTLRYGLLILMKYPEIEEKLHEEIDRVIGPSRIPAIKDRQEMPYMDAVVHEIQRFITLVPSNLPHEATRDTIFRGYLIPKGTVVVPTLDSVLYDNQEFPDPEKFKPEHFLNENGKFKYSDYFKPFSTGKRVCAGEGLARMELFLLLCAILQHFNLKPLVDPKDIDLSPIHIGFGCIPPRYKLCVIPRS
CYP2E1, sequence (P05181 whole entry): as above
CYP3A5, sequence (P20815 whole entry): as the sequence (P20815 whole entry) above
CYP2C9, sequence (P11712 whole entry): as the sequence (P11712 whole entry) above
CYP2D6, sequence (P10635 whole entry): as the sequence (P10635 whole entry) above

kinact (CYP2E1): 0.00133 s⁻¹
Ki (Cytochrome P450 2E1): 40 µM
Partition ratio (Cytochrome P450 3A5 [1]): 20
Ki (Cytochrome P450 3A4 [3]): 7.7 µM
kinact (CYP3A5): 0.00075 s⁻¹
Ki (Cytochrome P450 3A5 [4]): 20 µM
Ki (Cytochrome P450 2B1 [5]): 2.4 µM
kinact (CYP2B1): 0.000817 s⁻¹
Ki (Cytochrome P450 2B6 [6]): 5.2 µM
kinact (CYP2B6): 0.00145 s⁻¹
Partition ratio (Cytochrome P450 2B6 [7]): 2
Ki (Cytochrome P450 2B4): 2.8 µM
kinact (CYP2B4): 0.00113 s⁻¹
Compound: CC(C)=CCC/C(C)=C/COc1c2ccoc2cc2oc(=O)ccc12 [BERGAMOTTIN]
mechanism based inhibition (Cytochrome P450 3A4 [2]): Cytochrome P450 mechanistic inhibitor: PMID 10859150

Compound: CC(C)(c1ccccc1)N1CCCCC1
mechanism based inhibition (Cytochrome P450 2C9 [8]): Cytochrome P450 mechanistic inhibitor: PMID 10901701
Ki (Cytochrome P450 2B1 [5]): 12 µM
kinact (CYP2B1): 0.005 s⁻¹
Partition ratio (Cytochrome P450 2B1 [9]): 31
Ki (Cytochrome P450 2B6 [6]): 1.2 µM
kinact (CYP2B6): 0.00117 s⁻¹
Partition ratio (Cytochrome P450 2B6 [7]): 15

Compound: Cc1coc2c1CCC(C)C2 (stereo unspecified) [MENTHOFURAN]
Partition ratio (Cytochrome P450 2A6 [10]): 3.5
Ki (Cytochrome P450 2A6 [11]): 0.84 µM
kinact (CYP2A6 [12]): 0.00417 s⁻¹
Ki (Cytochrome P450 2A6 [13]): 2.5 µM
kinact (CYP2A6 [14]): 0.00367 s⁻¹

Partition ratio (Cytochrome P450 3A6 [15]): 21
Ki (Cytochrome P450 3A6 [16]): 80.1 µM
Compound: O=c1cc(-c2ccccc2)oc2c1ccc1ccccc12 [ALPHA-NAPHTHOFLAVONE]
mechanism based inhibition (Cytochrome P450 3A4 [2]): Cytochrome P450 mechanistic inhibitor: PMID 11640917

Ki (Cytochrome P450 2A6 [17]): 0.6 µM
kinact (CYP2A6 [18]): 0.005 s⁻¹
Partition ratio (Cytochrome P450 2B6 [19]): 46 and 71.2
Compound: O=c1ccc2cc3ccoc3cc2o1 [PSORALEN]

kinact (CYP2D6): 0.0015 s⁻¹
Ki (Cytochrome P450 2D6 [20]): 5.5 µM
Partition ratio (Cytochrome P450 2D6 [21]): 99
Compound: CCc1nc(C)c(CN2CCN(c3cc(C(F)(F)F)ccn3)CC2)[nH]1

Compound: COc1c2ccoc2cc2oc(=O)ccc12 [BERGAPTEN]
Partition ratio (Cytochrome P450 2B6 [22]): 57.4
Ki (Cytochrome P450 2A6 [17]): 12 µM
kinact (CYP2A6 [18]): 0.006 s⁻¹

Ki (Cytochrome P450 2C9 [8]): 3.7 µM
kinact (CYP2C9): 0.00152 s⁻¹
Partition ratio (Cytochrome P450 2C9 [23]): 101
Compound: CC(C(=O)O)c1ccc(C(=O)c2cccs2)cc1 (racemic) [SUPROFEN]
